Source: patent publication US4613603A, “Compounds with a nitrogen-containing heterocyclic nucleus, and drugs in which they are present” (Sanofi, priority 1984, dated 1986)
Counter-ions that a name gives are not always drawn. Like-named read-outs stand apart in the source and are kept apart here.

Experiments:
[1] = test system: contortional movements caused by the administration of acetic acid; test: Analgesic activity, KOSTER test (acetic acid contortions); format: in vivo; conditions: mice, 25 mg/kg administered orally 30 minutes before i.p. acetic acid
Experimental: The analgesic activity of the products according to the invention was evaluated using the KOSTER test (Federation Proceeding 18, 41 (1959)).
The products were administered orally to mice 30 minutes before the intraperitoneal injection of 0.25 ml of 0.1N acetic acid dissolved in 10% gum arabic. The contortions between the fifth and tenth minute and between the fifteenth and twentieth minute after administration of the acid were counted for the control animals and the treated animals.

[2] = Determination of the lethal dose in mice after acute administration; conditions: mouse, in vivo, po, administered orally, read-out: Percent toxicity (percentage of animals which die within 72 hours)
Experimental: The products were administered orally to groups of 5 female CDI Charles River mice weighing between 20 and 24 g. They were solubilized in 0.1N HCl. The toxicity was recorded for 72 hours following the administration of the products.
The results, expressed as the percentage of animals which die within 72 hours following oral administration of the products, are given in the table above.

[3] = test system: convulsions induced by an electric shock; test: Antagonism towards the convulsions induced by an electric shock; format: in vivo; conditions: Mus musculus, po, 1 h; mice, administered orally 60 minutes before the electric shock; confidence limits in brackets (p ≤ 0.05); read-out: Median effective dose (ED50) for antagonism towards electric shock
Experimental: (§1) The anticonvulsant effect of the products on mice was evaluated on a model involving convulsions caused by an electric shock and on a model involving convulsions induced by a chemical agent: bicuculline.
The test was a slightly modified version of that of SWINYARD et al. [Journal of Pharmacology and Experimental Therapeutics 106, 319-330 (1952)] and ASAMI et al. [Arzneimittel Forschung 24(10), 1563-1568 (1974)]. The equipment consisted of a Racia shock generator fitted with 2 ocular electrodes delivering a current at 12.5 volts for 0.3 second. The groups consisted of 10 CDI Charles River mice weighing between 20 and 24 g.
The products were administered orally 60 minutes before the electric shock.

bicuculline = test: Antagonism towards the convulsions and the mortality caused by bicuculline; format: in vivo, mice; conditions: Mus musculus, po, 1 h
Experimental: as §1
The groups consisted of 10 CDI Charles River mice weighing between 20 and 22 g. The products were administered orally 60 minutes before the bicuculline (0.8 mg/kg, administered intravenously).

[4] = test system: mortality following the injection of collagen; test: Antithrombotic activity, mortality following the injection of collagen; format: in vivo; conditions: mice, 200 mg/kg, administered orally
[5] = read-out: Median effective dose (ED50) for antagonism towards bicuculline, Mortality
[6] = read-out: Median effective dose (ED50) for antagonism towards bicuculline, Tonic convulsions

## OC1CCN(c2ccc(-c3ccccc3Cl)cn2)CC1 [SR 42 482, 5-(2-Chlorophenyl)-2-(4-hydroxypiperidino)-pyridine acid maleate]
[1]
  Antagonism towards the contortional movements (percent/control animals): -50%
[2]; 250 mg/kg
  mortality at 72 h: 0%
[2]; 500 mg/kg
  mortality at 72 h: 0%
[2]; 1000 mg/kg
  mortality at 72 h: 0%

## OC1CCN(c2ncc(-c3ccccc3Cl)cn2)CC1 [SR 42 505, 5-(2-Chlorophenyl)-2-(4-hydroxypiperidino)pyrimidine]
[3]
  ED50: 42 mg/kg
bicuculline; [5]
  ED50: 54 mg/kg
bicuculline; [6]
  ED50: 52 mg/kg
[1]
  Antagonism towards the contortional movements (percent/control animals): -36%
[2]; 250 mg/kg
  mortality at 72 h: 0%
[2]; 500 mg/kg
  mortality at 72 h: 0%
[2]; 1000 mg/kg
  mortality at 72 h: 80%

## OC1CCN(c2ncc(-c3ccccc3Cl)nn2)CC1 [SR 42 524, 6-(2-Chlorophenyl)-3-(4-hydroxypiperidino)-1,2,4-triazine]
[3]
  ED50: 24 mg/kg
bicuculline; [5]
  ED50: 72 mg/kg
bicuculline; [6]
  ED50: 71 mg/kg
[4]
  Protection from mortality following the injection of collagen: protected mice from mortality following the injection of collagen
[2]; 250 mg/kg
  mortality at 72 h: 0%
[2]; 500 mg/kg
  mortality at 72 h: 0%
[2]; 1000 mg/kg
  mortality at 72 h: 0%

## O=C1CCN(c2ncc(-c3ccccc3Cl)nn2)CC1 [SR 42 642, 6-(2-Chlorophenyl)-3-(4-oxopiperidino)-1,2,4-triazine]
[3]
  ED50: 40 mg/kg
[2]; 250 mg/kg
  mortality at 72 h: 0%
[2]; 500 mg/kg
  mortality at 72 h: 0%

## O=C1CCN(c2ccc(-c3ccccc3Cl)cn2)CC1 [SR 42 696, 5-(2-Chlorophenyl)-2-(4-oxopiperidino)pyridine acid maleate]
[2]; 250 mg/kg
  mortality at 72 h: 0%
[2]; 500 mg/kg
  mortality at 72 h: 0%

## OC1CCN(c2ncc(-c3ccc(Cl)cc3Cl)cn2)CC1 [SR 42 824, 5-(2,4-dichlorophenyl)-2-(4-hydroxypiperidino)pyrimidine]
[3]
  ED50: 20 mg/kg
bicuculline; [5]
  ED50: 8 mg/kg
bicuculline; [6]
  ED50: 9.4 mg/kg
[1]
  Antagonism towards the contortional movements (percent/control animals): -80%
[2]; 250 mg/kg
  mortality at 72 h: 0%
[2]; 500 mg/kg
  mortality at 72 h: 0%

## OC1CCN(c2ncc(-c3ccc(Cl)cc3Cl)nn2)CC1 [SR 42 825, 6-(2,4-Dichlorophenyl)-3-(4-hydroxypiperidino)-1,2,4-triazine]
[3]
  ED50: 16 mg/kg
bicuculline; [5]
  ED50: 3.3 mg/kg
bicuculline; [6]
  ED50: 3.1 mg/kg
[1]
  Antagonism towards the contortional movements (percent/control animals): -57%
[2]; 250 mg/kg
  mortality at 72 h: 20%
[2]; 500 mg/kg
  mortality at 72 h: 20%
[2]; 1000 mg/kg
  mortality at 72 h: 80%

## O=C1CCN(c2ncc(-c3ccc(Cl)cc3Cl)nn2)CC1 [SR 42 826, 6-(2,4-Dichlorophenyl)-3-(4-oxopiperidino)-1,2,4-triazine]
[3]
  ED50: 26 mg/kg
bicuculline; [5]
  ED50: 3.4 mg/kg
bicuculline; [6]
  ED50: 3.2 mg/kg
[1]
  Antagonism towards the contortional movements (percent/control animals): -42%
[2]; 250 mg/kg
  mortality at 72 h: 0%
[2]; 500 mg/kg
  mortality at 72 h: 20%

## OC1CCN(c2cnc(-c3ccc(Cl)cc3)nn2)CC1 [SR 42 833, 3-(4-Chlorophenyl)-6-(4-hydroxypiperidino)-1,2,4-triazine]
[1]
  Antagonism towards the contortional movements (percent/control animals): -31%
[2]; 250 mg/kg
  mortality at 72 h: 0%
[2]; 500 mg/kg
  mortality at 72 h: 0%

## OC1CCN(c2ccc(-c3ccc(Cl)cc3Cl)cn2)CC1 [SR 42 903, 5-(2,4-Dichlorophenyl)-2-(4-hydroxypiperidino)pyridine]
[3]
  ED50: 28 mg/kg

## OC1CCN(c2cnc(-c3cccc(Cl)c3)nn2)CC1 [SR 42 904, 3-(3-Chlorophenyl)-6-(4-hydroxypiperidino)-1,2,4-triazine]
[3]
  ED50: 59 mg/kg
[2]; 250 mg/kg
  mortality at 72 h: 0%
[2]; 500 mg/kg
  mortality at 72 h: 0%

## OC1CCN(c2ncc(-c3ccc(Cl)cc3)cn2)CC1 [SR 42 921, 5-(4-chlorophenyl)-2-(4-hydroxypiperidino)pyrimidine]
[2]; 250 mg/kg
  mortality at 72 h: 0%
[2]; 500 mg/kg
  mortality at 72 h: 0%

## OC1CCN(c2ncc(-c3cccc(Cl)c3)cn2)CC1 [SR 42 922, 5-(3-chlorophenyl)-2-(4-hydroxypiperidino)pyrimidine]
[2]; 250 mg/kg
  mortality at 72 h: 0%
[2]; 500 mg/kg
  mortality at 72 h: 0%
[2]; 1000 mg/kg
  mortality at 72 h: 0%

## OC1CCN(c2ncc(-c3cccc4ccccc34)cn2)CC1 [SR 43 139, 5-(naphthyl-1)-2-(4-hydroxypiperidino)pyrimidine]
[3]
  ED50: 43 mg/kg
bicuculline; [5]
  ED50: 44 mg/kg
bicuculline; [6]
  ED50: 46 mg/kg
[2]; 250 mg/kg
  mortality at 72 h: 0%
[2]; 500 mg/kg
  mortality at 72 h: 0%
[2]; 1000 mg/kg
  mortality at 72 h: 0%

## COc1ccc(-c2cnc(N3CCC(O)CC3)nc2)cc1 [SR 43 159, 5-(4-methoxyphenyl)-2-(4-hydroxypiperidino)pyrimidine]
[3]
  ED50: 83 mg/kg
bicuculline; [5]
  ED50: 60 mg/kg
bicuculline; [6]
  ED50: 70 mg/kg
[2]; 250 mg/kg
  mortality at 72 h: 0%
[2]; 500 mg/kg
  mortality at 72 h: 0%
[2]; 1000 mg/kg
  mortality at 72 h: 0%

## O=C(OC1CCN(c2ncc(-c3ccccc3Cl)cn2)CC1)N1CCC(O)CC1 [SR 43 516, 2-[4-(4-hydroxypiperidinocarbonyloxy)piperidino]-5-(2-chlorophenyl)pyrimidine]
[3]
  ED50: 91 mg/kg
[2]; 250 mg/kg
  mortality at 72 h: 0%
[2]; 500 mg/kg
  mortality at 72 h: 0%
[2]; 1000 mg/kg
  mortality at 72 h: 0%

## CN(C)C(=O)OC1CCN(c2ncc(-c3ccccc3Cl)cn2)CC1 [SR 43 537, 2-(4-dimethylcarbamoyloxypiperidino)-5-(2-chlorophenyl)pyrimidine]
[3]
  ED50: 2.5 mg/kg
bicuculline; [5]
  ED50: 3 mg/kg
bicuculline; [6]
  ED50: 3.3 mg/kg

## CN(C)C(=O)OC1CCN(c2ncc(-c3ccc(Cl)cc3Cl)cn2)CC1 [SR 43 539, 2-(4-Dimethylcarbamoyloxypiperidino)-5-(2,4-dichlorophenyl)pyrimidine]
[3]
  ED50: 2.5 mg/kg
bicuculline; [5]
  ED50: 0.7 mg/kg
bicuculline; [6]
  ED50: 1.1 mg/kg

## CNC(=O)OC1CCN(c2ncc(-c3ccccc3Cl)cn2)CC1 [SR 43 543, 2-(4-Methylcarbamoyloxypiperidino)-5-(2-chlorophenyl)pyrimidine]
[3]
  ED50: 19 mg/kg
bicuculline; [5]
  ED50: 3.9 mg/kg
bicuculline; [6]
  ED50: 4.3 mg/kg
[2]; 250 mg/kg
  mortality at 72 h: 0%
[2]; 500 mg/kg
  mortality at 72 h: 0%
[2]; 1000 mg/kg
  mortality at 72 h: 20%

## CC(=O)OC1CCN(c2ncc(-c3ccc(Cl)cc3Cl)cn2)CC1 [SR 43 651, 2-(4-Acetoxypiperidino)-5-(2,4-dichlorophenyl)pyrimidine]
[3]
  ED50: 43 mg/kg
bicuculline; [5]
  ED50: 15.5 mg/kg
bicuculline; [6]
  ED50: 17.2 mg/kg
